Here are results for four compounds from EP0299533B1, “High potency sweetening agents” (THE NUTRASWEET COMPANY (a Delaware corporation), priority 1987, dated 1989).

Counter-ions that a name gives are not always drawn.

One may read the share remaining as the share of the starting amount still present when the sample was taken. What is called half-life is how long it takes for the measured level to halve.

A short description of data set [1]: Taste test: compound was tasted for sweetness. Format: in vivo. As to the method: A mixture of 5-aminomethyltetrazole (0.50 g, 5.05 mmol), sodium hydroxide (0.20 g, 5.00 mmol) and 1.5 ml of water was added to a solution of N-cyclooctyl-N′-(4-cyanophenyl)-S-methylisothiourea (1.52 g, 5.05 mmol) in 15 ml of absolute ethanol. The mixture was heated to 70° for 20 hours. After cooling, the solution was concentrated to dryness and the residue was dissolved in 20 ml of water. The resulting solution was washed with dichloromethane (3 x 20 ml) and then neutralized with a 1 N HCl solution to bring its pH to 7.5. The desired guanidine compound precipitated and was separated out by filtration to give 1.2 g (70%) of white solid. PMR (CD₃OD) δ 7.75 (d, J=8 Hz, 2H), 7.41 (d, J=8 Hz, 2H), 4.70 (s, 2H), 3.82 (m, 1H) and 1.96-1.46 (m, 14H). CMR (DMSO-D6) δ 158.3, 153.3, 144.0, 133.7, 122.0, 119.0, 105.5, 52.8, 37.8, 31.2, 26.8, 24.6 and 22.9. Analysis calculated for C₁₈H₂₄N₈ (0.6 H₂O): C, 59.52; H, 6.99; N, 30.85. Found: C, 59.38; H, 7.07; N, 31.18. The compound was tasted and was sweeet at a concentration of 10 ug/ml.
All the compounds presented in Examples 1 through 42 were tasted and were sweet.

Data set [2] is described as follows: Stability in aqueous sodium phosphate buffer at pH 3, percent remaining by HPLC. Format: physicochemical. The conditions noted are these: for half-life: phosphate buffer. As to the method:
Compound 1 above was dissolved in an aqueous sodium phosphate buffer at a pH of 3 at a concentration of 30 µg/ml. The buffer was prepared by adding concentrated phosphoric acid to sodium phosphate […] until the pH was 3.0. This solution was then maintained at 90°C for 6 days. The percent of compound 1 remaining after 6 days was 98%. […] The half-life was estimated to be 177 days in this buffer at 90°C. The stability of the glycine derivative of this compound, i.e., 1′-N-[N-cyclooctylamino(4-cyanophenylimino)methyl]-glycine was determined in the same way as Cpd. 1 except at 70°C and 50°C instead of 90°C. […] The calculated half-life at 90°C is about 2 days.

Take `N#Cc1ccc(NC(=NCc2nnn[nH]2)NC2CC3CCC(=O)CC3C2)cc1` (stereo not drawn) [Example 42, 1′-N-[N′-2-Amino-6-oxo-cis-hydrindane (4-Cyanophenylimino)methyl]-5-Aminomethyltetrazole]: the “concentration at which the compound was tasted and was sweet” value in data set [1] turned out to be 100 µg/mL.

Consider `N#Cc1ccc(NC(=NCc2nnn[nH]2)NC2CCCCCCC2)cc1` [Example 1, 1'-N-[N-Cyclooctylamino (4-Cyanophenylimino)methyl]-5-Aminomethyltetrazole], for which, in data set [1], the “concentration at which the compound was tasted and was sweet” value was 10 µg/mL. The share remaining at 144 h in data set [2] (aqueous sodium phosphate buffer pH 3, 30 µg/ml, 90°C, 6 days, HPLC, read-out: percent of compound remaining after 6 days) worked out at 98%. Moreover, the half-life in data set [2] (pH 3, buffer pH 3, 90°C, estimated) was 177 days. Regarding `N#Cc1ccc(N=C(NCc2nnn[nH]2)NC2CCCCCCC2)cc1` [Example 1 HCl salt], the taste when tasted entry in data set [1] (no concentration given) was “sweet”. In the case of `N#Cc1ccc(NC(=NCC(=O)O)NC2CCCCCCC2)cc1` [glycine derivative, 1′-N-[N-cyclooctylamino(4-cyanophenylimino)methyl]-glycine, reference compound], the half-life in data set [2] (pH 3, buffer pH 3, 50°C) was 13 days; in data set [2] (pH 3, buffer pH 3, 70°C), 5 days.
